From ChEMBL document CHEMBL3046876, “Effect of Buprofezin on Oviposition of Brown Planthopper, Nilaparvata lugens, at Sub-lethal Dose” (1996)

What was measured:
Type in all cases: functional
Nilaparvata lugens [1] = assay: Effect on oviposition in Nilaparvata lugens (brown planthopper) assessed as eggs laid at 10 ppm measured after 7 days relative to control
Nilaparvata lugens [2] = assay: Insecticidal activity against Nilaparvata lugens (brown planthopper) emerged female adult assessed as mortality at 0.00064 ppm measured after 7 days relative to control; details: 168 h
Nilaparvata lugens [3] = assay: Effect on development of ovarioles in Nilaparvata lugens (brown planthopper) assessed as number of ovarioles at 0.016 ppm measured after 7 days relative to control
Nilaparvata lugens [4] = assay: Effect on life span in Nilaparvata lugens (brown planthopper) adult at 0.00064 ppm measured after 7 days relative to control
Nilaparvata lugens [5] = assay: Effect on hatchability in Nilaparvata lugens (brown planthopper) at 0.016 ppm measured after 7 days relative to control
Nilaparvata lugens [6] = assay: Insecticidal activity against Nilaparvata lugens (brown planthopper) fifth-instar nymphs assessed as mortality at 0.0032 ppm measured after 7 days; details: 168 h
Nilaparvata lugens [7] = assay: Insecticidal activity against Nilaparvata lugens (brown planthopper) fifth-instar nymphs assessed as mortality at 10 ppm measured after 7 days; details: 168 h
Nilaparvata lugens [8] = assay: Insecticidal activity against Nilaparvata lugens (brown planthopper) fifth-instar nymphs assessed as mortality at 0.000128 ppm measured after 7 days; details: 168 h
Nilaparvata lugens [9] = assay: Insecticidal activity against Nilaparvata lugens (brown planthopper) fifth-instar nymphs assessed as mortality at 0.08 ppm measured after 7 days; details: 168 h
Nilaparvata lugens [10] = assay: Effect on oviposition in Nilaparvata lugens (brown planthopper) assessed as eggs laid at 2 ppm measured after 7 days relative to control
Nilaparvata lugens [11] = assay: Insecticidal activity against Nilaparvata lugens (brown planthopper) emerged female adult assessed as mortality at 0.0032 ppm measured after 7 days relative to control; details: 168 h
Nilaparvata lugens [12] = assay: Insecticidal activity against Nilaparvata lugens (brown planthopper) assessed as mortality at 0.4 ppm measured after 7 days relative to control; details: 168 h
Nilaparvata lugens [13] = assay: Insecticidal activity against Nilaparvata lugens (brown planthopper) fifth-instar nymphs assessed as mortality at 0.0000256 ppm measured after 7 days; details: 168 h
Nilaparvata lugens [14] = assay: Effect on hatchability in Nilaparvata lugens (brown planthopper) at 0.4 ppm measured after 7 days relative to control
Nilaparvata lugens [15] = assay: Insecticidal activity against Nilaparvata lugens (brown planthopper) fifth-instar nymphs assessed as mortality at 50 ppm measured after 7 days; details: 168 h
Nilaparvata lugens [16] = assay: Insecticidal activity against Nilaparvata lugens (brown planthopper) fifth-instar nymphs assessed as mortality at 0.4 ppm measured after 7 days; details: 168 h
Nilaparvata lugens [17] = assay: Effect on oviposition in Nilaparvata lugens (brown planthopper) assessed as eggs laid at 0.4 ppm measured after 7 days relative to control
Nilaparvata lugens [18] = assay: Insecticidal activity against Nilaparvata lugens (brown planthopper) fifth-instar nymphs assessed as mortality at 0.00064 ppm measured after 7 days; details: 168 h
Nilaparvata lugens [19] = assay: Effect on oviposition in Nilaparvata lugens (brown planthopper) assessed as eggs laid at 0.016 ppm measured after 7 days relative to control
Nilaparvata lugens [20] = assay: Insecticidal activity against Nilaparvata lugens (brown planthopper) emerged female adult assessed as mortality at 0.016 ppm measured after 7 days relative to control; details: 168 h
Nilaparvata lugens [21] = assay: Effect on oviposition in Nilaparvata lugens (brown planthopper) assessed as eggs laid at 0.0000256 ppm measured after 7 days relative to control
Nilaparvata lugens [22] = assay: Effect on egg maturity in Nilaparvata lugens (brown planthopper) at 0.4 ppm measured after 7 days relative to control
Nilaparvata lugens [23] = assay: Effect on life span in Nilaparvata lugens (brown planthopper) adult at 0.016 ppm measured after 7 days relative to control
Nilaparvata lugens [24] = assay: Insecticidal activity against Nilaparvata lugens (brown planthopper) emerged female adult assessed as mortality at 0.08 ppm measured after 7 days relative to control; details: 168 h
Nilaparvata lugens [25] = assay: Insecticidal activity against Nilaparvata lugens (brown planthopper) assessed as mortality at 0.00064 ppm measured after 7 days relative to control; details: 168 h
Nilaparvata lugens [26] = assay: Effect on oviposition in Nilaparvata lugens (brown planthopper) assessed as eggs laid at 0.00064 ppm measured after 7 days relative to control
Nilaparvata lugens [27] = assay: Insecticidal activity against Nilaparvata lugens (brown planthopper) assessed as mortality at 50 ppm measured after 7 days relative to control; details: 168 h
Nilaparvata lugens [28] = assay: Insecticidal activity against Nilaparvata lugens (brown planthopper) assessed as mortality at 10 ppm measured after 7 days relative to control; details: 168 h
Nilaparvata lugens [29] = assay: Effect on development of ovarioles in Nilaparvata lugens (brown planthopper) assessed as number of ovarioles at 0.4 ppm measured after 7 days relative to control
Nilaparvata lugens [30] = assay: Insecticidal activity against Nilaparvata lugens (brown planthopper) fifth-instar nymphs assessed as mortality at 0.016 ppm measured after 7 days; details: 168 h
Nilaparvata lugens [31] = assay: Effect on hatchability in Nilaparvata lugens (brown planthopper) at 0.08 ppm measured after 7 days relative to control
Nilaparvata lugens [32] = assay: Insecticidal activity against Nilaparvata lugens (brown planthopper) emerged female adult assessed as mortality at 0.0000256 ppm measured after 7 days relative to control; details: 168 h
Nilaparvata lugens [33] = assay: Effect on egg maturity in Nilaparvata lugens (brown planthopper) at 0.016 ppm measured after 7 days relative to control
Nilaparvata lugens [34] = assay: Effect on development of ovarioles in Nilaparvata lugens (brown planthopper) assessed as number of ovarioles at 0.00064 ppm measured after 7 days relative to control
Nilaparvata lugens [35] = assay: Effect on life span in Nilaparvata lugens (brown planthopper) adult at 10 ppm measured after 7 days relative to control
Nilaparvata lugens [36] = assay: Effect on hatchability in Nilaparvata lugens (brown planthopper) at 2 ppm measured after 7 days relative to control
Nilaparvata lugens [37] = assay: Effect on oviposition in Nilaparvata lugens (brown planthopper) assessed as eggs laid at 0.0032 ppm measured after 7 days relative to control
Nilaparvata lugens [38] = assay: Insecticidal activity against Nilaparvata lugens (brown planthopper) assessed as mortality at 0.0032 ppm measured after 7 days relative to control; details: 168 h
Nilaparvata lugens [39] = assay: Effect on egg maturity in Nilaparvata lugens (brown planthopper) at 0.00064 ppm measured after 7 days relative to control
Nilaparvata lugens [40] = assay: Insecticidal activity against Nilaparvata lugens (brown planthopper) assessed as mortality at 0.000128 ppm measured after 7 days relative to control; details: 168 h
Nilaparvata lugens [41] = assay: Insecticidal activity against Nilaparvata lugens (brown planthopper) assessed as mortality at 0.0000256 ppm measured after 7 days relative to control; details: 168 h
Nilaparvata lugens [42] = assay: Insecticidal activity against Nilaparvata lugens (brown planthopper) assessed as mortality at 0.016 ppm measured after 7 days relative to control; details: 168 h
Nilaparvata lugens [43] = assay: Insecticidal activity against Nilaparvata lugens (brown planthopper) emerged female adult assessed as mortality at 0.4 ppm measured after 7 days relative to control; details: 168 h
Nilaparvata lugens [44] = assay: Insecticidal activity against Nilaparvata lugens (brown planthopper) assessed as mortality at 2 ppm measured after 7 days relative to control; details: 168 h
Nilaparvata lugens [45] = assay: Insecticidal activity against Nilaparvata lugens (brown planthopper) assessed as mortality at 0.08 ppm measured after 7 days relative to control; details: 168 h
Nilaparvata lugens [46] = assay: Effect on oviposition in Nilaparvata lugens (brown planthopper) assessed as eggs laid at 0.000128 ppm measured after 7 days relative to control
Nilaparvata lugens [47] = assay: Insecticidal activity against Nilaparvata lugens (brown planthopper) emerged female adult assessed as mortality at 0.000128 ppm measured after 7 days relative to control; details: 168 h
Nilaparvata lugens [48] = assay: Effect on life span in Nilaparvata lugens (brown planthopper) adult at 0.4 ppm measured after 7 days relative to control
Nilaparvata lugens [49] = assay: Effect on oviposition in Nilaparvata lugens (brown planthopper) assessed as eggs laid at 0.08 ppm measured after 7 days relative to control
Nilaparvata lugens [50] = assay: Insecticidal activity against Nilaparvata lugens (brown planthopper) emerged female adult assessed as mortality at 2 ppm measured after 7 days relative to control; details: 168 h
Nilaparvata lugens [51] = assay: Insecticidal activity against Nilaparvata lugens (brown planthopper) emerged female adult assessed as mortality at 10 ppm measured after 7 days relative to control; details: 168 h
Nilaparvata lugens [52] = assay: Insecticidal activity against Nilaparvata lugens (brown planthopper) fifth-instar nymphs assessed as mortality at 2 ppm measured after 7 days; details: 168 h
Nilaparvata lugens [53] = assay: Effect on hatchability in Nilaparvata lugens (brown planthopper) at 10 ppm measured after 7 days relative to control

Compound: CC(C)N1C(=O)N(c2ccccc2)CS/C1=N\C(C)(C)C [BUPROFEZIN]
- Activity (Nilaparvata lugens [1]): 0%
- mortality at 0.00064 ppm (Nilaparvata lugens [2]): 0%
- Activity (Nilaparvata lugens [3]): 106%
- Activity (Nilaparvata lugens [4]): 106%
- Activity (Nilaparvata lugens [5]): 96%
- mortality at 0.0032 ppm (Nilaparvata lugens [6]): 0%
- mortality at 10 ppm (Nilaparvata lugens [7]): 89%
- mortality at 0.000128 ppm (Nilaparvata lugens [8]): 0%
- mortality at 0.08 ppm (Nilaparvata lugens [9]): 0%
- Activity (Nilaparvata lugens [10]): 36%
- mortality at 0.0032 ppm (Nilaparvata lugens [11]): 0%
- mortality at 0.4 ppm (Nilaparvata lugens [12]): 19%
- mortality at 2.56e-05 ppm (Nilaparvata lugens [13]): 0%
- Activity (Nilaparvata lugens [14]): 97%
- mortality at 50 ppm (Nilaparvata lugens [15]): 100%
- mortality at 0.4 ppm (Nilaparvata lugens [16]): 7%
- Activity (Nilaparvata lugens [17]): 79%
- mortality at 0.00064 ppm (Nilaparvata lugens [18]): 0%
- Activity (Nilaparvata lugens [19]): 92%
- mortality at 0.016 ppm (Nilaparvata lugens [20]): 3%
- Activity (Nilaparvata lugens [21]): 97%
- Activity (Nilaparvata lugens [22]): 100%
- Activity (Nilaparvata lugens [23]): 101%
- mortality at 0.08 ppm (Nilaparvata lugens [24]): 9%
- mortality at 0.00064 ppm (Nilaparvata lugens [25]): 0%
- Activity (Nilaparvata lugens [26]): 88%
- mortality at 50 ppm (Nilaparvata lugens [27]): 100%
- mortality at 10 ppm (Nilaparvata lugens [28]): 95%
- Activity (Nilaparvata lugens [29]): 107%
- mortality at 0.016 ppm (Nilaparvata lugens [30]): 0%
- Activity (Nilaparvata lugens [31]): 98%
- mortality at 2.56e-05 ppm (Nilaparvata lugens [32]): 0%
- Activity (Nilaparvata lugens [33]): 106%
- Activity (Nilaparvata lugens [34]): 103%
- Activity (Nilaparvata lugens [35]): 28%
- Activity (Nilaparvata lugens [36]): 74%
- Activity (Nilaparvata lugens [37]): 115%
- mortality at 0.0032 ppm (Nilaparvata lugens [38]): 0%
- Activity (Nilaparvata lugens [39]): 98%
- mortality at 0.000128 ppm (Nilaparvata lugens [40]): 11%
- mortality at 2.56e-05 ppm (Nilaparvata lugens [41]): 0%
- mortality at 0.016 ppm (Nilaparvata lugens [42]): 3%
- mortality at 0.4 ppm (Nilaparvata lugens [43]): 13%
- mortality at 2 ppm (Nilaparvata lugens [44]): 69%
- mortality at 0.08 ppm (Nilaparvata lugens [45]): 9%
- Activity (Nilaparvata lugens [46]): 117%
- mortality at 0.000128 ppm (Nilaparvata lugens [47]): 11%
- Activity (Nilaparvata lugens [48]): 78%
- Activity (Nilaparvata lugens [49]): 111%
- mortality at 2 ppm (Nilaparvata lugens [50]): 69%
- mortality at 10 ppm (Nilaparvata lugens [51]): 57%
- mortality at 2 ppm (Nilaparvata lugens [52]): 0%

Compound: CC1(C)[C@H](C(=O)O[C@H](C#N)c2cccc(Oc3ccccc3)c2)[C@@H]1C=C(Br)Br [DELTAMETHRIN]
- Activity (Nilaparvata lugens [1]): 101%
- mortality at 0.00064 ppm (Nilaparvata lugens [2]): 4%
- Activity (Nilaparvata lugens [3]): 133%
- Activity (Nilaparvata lugens [4]): 120%
- Activity (Nilaparvata lugens [5]): 98%
- mortality at 0.0032 ppm (Nilaparvata lugens [6]): 0%
- mortality at 10 ppm (Nilaparvata lugens [7]): 40%
- mortality at 0.000128 ppm (Nilaparvata lugens [8]): 0%
- mortality at 0.08 ppm (Nilaparvata lugens [9]): 2%
- Activity (Nilaparvata lugens [10]): 109%
- mortality at 0.0032 ppm (Nilaparvata lugens [11]): 0%
- mortality at 0.4 ppm (Nilaparvata lugens [12]): 9%
- mortality at 2.56e-05 ppm (Nilaparvata lugens [13]): 0%
- Activity (Nilaparvata lugens [14]): 94%
- mortality at 50 ppm (Nilaparvata lugens [15]): 100%
- mortality at 0.4 ppm (Nilaparvata lugens [16]): 9%
- Activity (Nilaparvata lugens [17]): 124%
- mortality at 0.00064 ppm (Nilaparvata lugens [18]): 0%
- Activity (Nilaparvata lugens [19]): 128%
- mortality at 0.016 ppm (Nilaparvata lugens [20]): 9%
- Activity (Nilaparvata lugens [21]): 107%
- Activity (Nilaparvata lugens [22]): 113%
- Activity (Nilaparvata lugens [23]): 102%
- mortality at 0.08 ppm (Nilaparvata lugens [24]): 0%
- mortality at 0.00064 ppm (Nilaparvata lugens [25]): 4%
- Activity (Nilaparvata lugens [26]): 116%
- mortality at 50 ppm (Nilaparvata lugens [27]): 100%
- mortality at 10 ppm (Nilaparvata lugens [28]): 40%
- Activity (Nilaparvata lugens [29]): 114%
- mortality at 0.016 ppm (Nilaparvata lugens [30]): 0%
- Activity (Nilaparvata lugens [31]): 98%
- mortality at 2.56e-05 ppm (Nilaparvata lugens [32]): 4%
- Activity (Nilaparvata lugens [33]): 131%
- Activity (Nilaparvata lugens [34]): 102%
- Activity (Nilaparvata lugens [35]): 112%
- Activity (Nilaparvata lugens [36]): 92%
- Activity (Nilaparvata lugens [37]): 136%
- mortality at 0.0032 ppm (Nilaparvata lugens [38]): 0%
- Activity (Nilaparvata lugens [39]): 110%
- mortality at 0.000128 ppm (Nilaparvata lugens [40]): 0%
- mortality at 2.56e-05 ppm (Nilaparvata lugens [41]): 4%
- mortality at 0.016 ppm (Nilaparvata lugens [42]): 9%
- Activity (Nilaparvata lugens [53]): 98%
- mortality at 0.4 ppm (Nilaparvata lugens [43]): 0%
- mortality at 2 ppm (Nilaparvata lugens [44]): 4%
- mortality at 0.08 ppm (Nilaparvata lugens [45]): 2%
- Activity (Nilaparvata lugens [46]): 105%
- mortality at 0.000128 ppm (Nilaparvata lugens [47]): 0%
- Activity (Nilaparvata lugens [48]): 125%
- Activity (Nilaparvata lugens [49]): 112%
- mortality at 2 ppm (Nilaparvata lugens [50]): 0%
- mortality at 10 ppm (Nilaparvata lugens [51]): 0%
- mortality at 2 ppm (Nilaparvata lugens [52]): 4%
